# From PMC3774728, “Identification of the Plant Compound Geraniin as a Novel Hsp90 Inhibitor” (PLoS ONE, 2013)
# Legend:
# [1] = system: Hsp70, Hsp90 and Hsp90 client proteins in HeLa cells; assay: Western blot of Hsp70 and Hsp90 client proteins, HeLa; type: cell-based, human; conditions: 24 h
# Experimental: Treated cells were harvested and disrupted by freeze−thawing in RIPA buffer (50 mM Hepes, 10 mM EDTA, 150 mM NaCl, 1% NP-40, 0.5% sodium deoxycholate, 0.1% SDS, pH 7.4), supplemented with protease inhibitors cocktail (Sigma-Aldrich). Cell debris was removed by centrifugation at 4°C and the supernatant protein concentration was determined, according to the Bio-Rad Protein assay (Biorad Laboratories, CA, USA). Total proteins (30 µg) were separated by SDS-PAGE under denatured reducing conditions. Separated proteins were then transferred to nitrocellulose membranes and blocked for 3 h with a solution containing 3% BSA in 50 mM Tris, 200 mM NaCl, 0.1% Tween 20, before incubation at 4°C overnight with the different primary antibodies (diluted 1∶1000) against specific proteins. After washing, the membranes were incubated with an appropriate peroxidase-conjugate secondary antibodies at room temperature (1 h). Immunoreactive protein bands were detected by enhanced chemiluminescence reagent (ECL, Rockford, USA), according to the manufacturer’s instructions. Quantitative densitometry analyses were performed using a Gel Doc 2000 system (Biorad Laboratories, CA, USA).
# Figure 7 Effect of geraniin on Hsp90 client protein levels. Equal amounts (30 µg) of whole-cell lysates were separated on SDS-PAGE and client proteins were visualized by western blot analysis using specific antibodies. Actin was used as loading control. Total cellular proteins were extracted 24 h after treatment with geraniin (2.5 µM, 5 µM and 10 µM) in Jurkat cells (A) or geraniin (1 µM, 0.7 µM and 0.5 µM) in HeLa cells (B), ctrl = control cells treated with DMSO). The blots shown are representative of three different experiments with similar results.
# Jurkat cells = assay: Cell cycle and hypodiploidy by flow cytometry (PI), Jurkat; type: cell-based, human; conditions: 24 h, geraniin 0.7 µM, 17-AAG 10 µM
# Experimental: (§1) Cell DNA content was measured by propidium iodide (PI) incorporation into permeabilized cells, as described by Nicoletti et al.. Briefly, the cells were harvested after geraniin or 17-AAG treatments were washed with cold PBS and incubated with a PI solution (0.1% sodium citrate, 0.1% Triton X-100 and 50 µg mL^−1 of prodium iodide, Sigma-Aldrich, 10 µg/ml Rnase A) for 30 min at room temperature. Data from 10.000 events per sample were collected by a FACScalibur flow cytometer (Becton Dickinson, San José, CA) and cellular debris was excluded from analysis by raising the forward scatter threshold. The percentage of cells in the sub G0/G1 phase, apoptotic fraction, was quantified using CellQuest software (Becton Dickinson). The distribution of cells in G0/G1, S, G2/M phases was determined using ModFit LT cell cycle analysis software (Becton Dickinson). Results were expressed as a mean ± SD of three experiments performed in triplicate.
# (§2) Figure 6 Effects of geraniin and 17-AAG on cell cycle progression. Percentage of cell cycle stages was analyzed by flow cytometry, (A) PI-stained viable Jurkat cells treated with DMSO, 0.7 µM geraniin or 10 µM 17-AAG for 24 h.
# [2] = system: PBMC (human Peripheral Blood Mononuclear Cells); assay: Cytotoxicity in PHA-stimulated proliferating PBMC; type: cell-based; conditions: 24 h, trypan blue, only at high doses
# Experimental: To ensure logarithmic growth, cells were subcultured every two days. As control cells, human peripheral blood mononuclear cells (PBMC) were isolated from buffy coats of healthy donors (kindly provided by the Blood Center of the Hospital of Battipaglia, Salerno, Italy) by using standard Ficoll−Hypaque gradients. […] Proliferation of PBMC was induced by phytohemagglutinin (PHA) (10 µg mL^−1). […] Stock solutions of geraniin (50 mM in DMSO) and 17-AAG (10 mM in DMSO) were stored a −20°C in the dark and diluted just before addition to the sterile culture medium. In all the experiments, the final concentration of DMSO was 0.10% (v/v).
# The number of viable cells was determined by using a [3–4,5-dimethyldiazol-2-yl]-2,5-diphenyl tetrazolium bromide (MTT, Sigma-Aldrich) conversion assay, according to the method described by Mosmann. Briefly, following the treatment, 25 µL of MTT (5 mg/mL in PBS) was added and the cells were incubated for additional 3 h at 37°C. Thereafter, cells were lysed and suspended with 100 µL of buffer containing 50% (v/v) N,N-dimethylformamide, 20% SDS (pH 4.5). The absorbance was measured with a microplate reader (Titertek multiskan MCC7340, LabSystems, Vienna, VA, USA) equipped with a 620 nm filter. Cell population growth inhibition was tested by cytometric counting (trypan blu exclusion).
# recombinant Hsp90α = target: T1, recombinant Hsp90α (Homo sapiens, UniProt P07900); assay: Surface plasmon resonance binding to immobilized Hsp90α; conditions: SPR, immobilized Hsp90α, 25°C, single-site bimolecular model, 0.025-1 µM; read-out: KD
# T1 construct: purchased Assay Designs (Ann Arbor, MI, USA)
# Experimental: SPR analyses were carried out according to our previously published procedures, [23]. Briefly, SPR analyses were performed using a Biacore 3000 optical biosensor equipped with research−grade CM5 sensor chips (GE Healthcare). Using this platform, two separate recombinant Hsp90α surfaces, a BSA surface and one unmodified reference surface were prepared for simultaneous analyses. Proteins (100 µg mL^−1 in 10 mM CH3COONa, pH 5.0) were immobilized on individual sensor chip surfaces at a flow rate of 5 µL min^−1 using standard amine−coupling protocols to obtain densities of 8–12 kRU. Polyphenols, as well as 17-AAG and hardwickiic acid (HA), were dissolved in 100% DMSO to obtain 4 mM solutions, and diluted 1∶200 (v/v) in PBS (10 mM NaH2PO4, 150 mM NaCl, pH 7.4) to a final DMSO concentration of 0.5%. […] Binding experiments were performed at 25°C, using a flow rate of 50 µL min^−1, with 60 s monitoring of association and 300 s monitoring of dissociation. Simple interactions were suitably fitted to a single−site bimolecular interaction model (A+B = AB), yielding a single K D. Sensorgram elaborations were performed using the BIAevaluation software provided by GE Healthcare.
# Putative interactions of different plant-derived phenolic compounds with Hsp90α were evaluated by a SPR-based approach.
# HeLa cells = assay: Cell cycle and hypodiploidy by flow cytometry (PI), HeLa; type: cell-based, human; conditions: 24 h, geraniin 5 µM, 17-AAG 0.2 µM
# Experimental: as §1, §2
smiles,measurement,setting,value
"O=C1O[C@H]2[C@@H]3OC(=O)c4cc(O)c(O)c(O)c4-c4c(cc(O)c(O)c4O)C(=O)OC[C@H]2O[C@@H](OC(=O)c2cc(O)c(O)c(O)c2)[C@@H]3OC(=O)c2cc(O)c(O)c3c2[C@@H]2C1=CC(=O)[C@](O)(O3)C2(O)O [Compound 54, geraniin]",Hsp70 expression increase,[1]; 10 µM geraniin,2.7±0.09 fold
same,level of Akt,[1],unaffected
same,"level of the client proteins c-Raf, pAkt and EGFR",[1]; IC50 and lower and higher concentrations,dose-dependent decrease
same,cell cycle arrest,Jurkat cells,G2/M arrest
same,percentage of cells with hypodiploid nuclei,Jurkat cells,9.75±1.02%
same,cytotoxic effects in control PBMC,[2],Minimal cytotoxic effects
same,Kd,recombinant Hsp90α,0.415 ± 0.027 µM
same,cell cycle arrest,HeLa cells,G2/M arrest
same,percentage of cells with hypodiploid nuclei,HeLa cells,16.2±0.7%
